Data published in ChEMBL document CHEMBL5385865, “Discovery and optimization of 2-(trifluoromethyl)benzimidazole derivatives as novel ferroptosis inducers in vitro and in vivo” (Eur J Med Chem, 2023).
The source made the active and inactive calls.

Experiments:
HepG2 [1] = test: Induction of apoptosis in human HepG2 cells xenografted in BALB/c nude mouse at 15 to 30 mg/kg, ip administered every other day for 21 days by TUNEL staining based IHC analysis; type: functional, organism-based; settings: dose 15-30 mg/kg, time 21.0 day
HT-1080 [2] = test: Lethality in human HT-1080 cells assessed as inhibition of cell viability incubated for 24 hrs by MTT assay; type: functional, cell-based; settings: HT-1080, 24 h
HT-1080 [3] = test: Induction of ferroptosis in human HT-1080 cells assessed as increase in mitochondrial membrane density at 5 uM incubated for 24 hrs by TEM analysis; type: functional, cell-based
HepG2 [4] = test: Antitumor activity against human HepG2 cells xenografted in BALB/c nude mouse assessed as tumor weight reduction administered intraperitoneally every other day for 21 days; type: functional; settings: dose 15-30 mg/kg, route ip, time 21.0 day
HT-1080 [5] = test: Induction of ferroptosis in human HT-1080 cells assessed as cell death incubated for 24 hrs by morphology based microscopy; type: functional; settings: dose 0.5-5 µM
HT-1080 [6] = test: Induction of ferroptosis in human HT-1080 cells assessed as cell death at 5 uM incubated for 24 hrs in presence of Fer-1 by morphology based microscopy; type: functional
HT-1080 [7] = test: Induction of ferroptosis in human HT-1080 cells assessed as cell death at 5 uM incubated for 24 hrs in presence of DFO by morphology based microscopy; type: functional
HT-1080 [8] = test: Induction of ferroptosis in human HT-1080 cells assessed as increase in lipid ROS accumulation at 5 uM incubated for 10 hrs in presence of Fer-1 by BODIPY-C11 probe based confocal laser scanning microscopy; type: functional, cell-based
HT-1080 [9] = test: Induction of ferroptosis in human HT-1080 cells assessed as increase in cytosolic ROS accumulation incubated for 10 hrs by H2DCFDA probe based flow cytometry; type: functional, cell-based; settings: dose 0.5-5 µM
HT-1080 [10] = test: Induction of ferroptosis in human HT-1080 cells assessed as decrease in GSH level incubated for 12 hrs by DTNB method; type: functional, cell-based; settings: dose 0.5-5 µM
[11] = molecular target: T1, Cystine/glutamate transporter (Homo sapiens) (UniProt Q9UPY5); test: Inhibition of Xc- in human HT-1080 cells assessed as decrease in glutamate release incubated for 3 hrs by Amplex red assay; type: cell-based; settings: dose 0.5-5 µM
T1 sequence (whole entry): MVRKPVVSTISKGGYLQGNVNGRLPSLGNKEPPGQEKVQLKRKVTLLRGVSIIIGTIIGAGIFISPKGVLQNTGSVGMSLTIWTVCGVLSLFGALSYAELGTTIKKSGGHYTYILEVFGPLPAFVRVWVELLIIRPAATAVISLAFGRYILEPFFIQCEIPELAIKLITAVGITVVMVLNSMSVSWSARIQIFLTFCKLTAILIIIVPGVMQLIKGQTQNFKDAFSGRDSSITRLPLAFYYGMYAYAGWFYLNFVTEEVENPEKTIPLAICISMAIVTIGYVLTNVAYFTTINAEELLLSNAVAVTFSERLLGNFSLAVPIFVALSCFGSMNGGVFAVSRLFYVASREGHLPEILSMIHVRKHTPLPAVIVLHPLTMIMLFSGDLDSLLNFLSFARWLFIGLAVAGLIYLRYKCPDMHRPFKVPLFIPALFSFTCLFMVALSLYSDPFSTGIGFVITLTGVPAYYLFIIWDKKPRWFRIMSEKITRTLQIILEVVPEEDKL

786-0 [12] = test: Lethality in human 786-0 cells assessed as inhibition of cell viability incubated for 24 hrs by MTT assay; type: functional, cell-based; settings: 786-0, 24 h
HepG2 [13] = test: Lethality in human HepG2 cells assessed as inhibition of cell viability incubated for 24 hrs by MTT assay; type: functional, cell-based; settings: HepG2, 24 h
MDA-MB-231 [14] = test: Lethality in human MDA-MB-231 cells assessed as decrease in cell viability at 10 uM incubated for 48 hrs by MTT assay; type: functional, cell-based
HeLa = test: Lethality in human HeLa cells assessed as decrease in cell viability at 10 uM incubated for 48 hrs by MTT assay; type: functional, cell-based
A-375 [15] = test: Lethality in human A-375 cells assessed as decrease in cell viability at 10 uM incubated for 48 hrs by MTT assay; type: functional, cell-based
786-0 [16] = test: Lethality in human 786-0 cells assessed as decrease in cell viability at 10 uM incubated for 48 hrs in presence of DFO by MTT assay; type: functional, cell-based
MDA-MB-231 [17] = test: Lethality in human MDA-MB-231 cells assessed as decrease in cell viability at 10 uM incubated for 48 hrs in presence of DFO by MTT assay; type: functional, cell-based
HepG2 [18] = test: Lethality in human HepG2 cells assessed as decrease in cell viability at 10 uM incubated for 48 hrs in presence of DFO by MTT assay; type: functional, cell-based
A-375 [19] = test: Lethality in human A-375 cells assessed as decrease in cell viability at 10 uM incubated for 48 hrs in presence of DFO by MTT assay; type: functional, cell-based
DU-145 = test: Lethality in human DU-145 cells assessed as decrease in cell viability at 10 uM incubated for 48 hrs in presence of DFO by MTT assay; type: functional, cell-based
[20] = Toxicity in human L02 cells upto 20 uM incubated for 48 hrs by MTT assay; type: cell-based; settings: l02, 48 h
[21] = Toxicity in human HEK293T cells upto 20 uM incubated for 48 hrs by MTT assay; type: cell-based; settings: hek-293t
HepG2 [22] = test: Antitumor activity against human HepG2 cells xenografted in BALB/c nude mouse assessed as tumor growth inhibition at 30 mg/kg, ip administered every other day for 21 days by electronic caliper analysis relative to control; type: functional; settings: HepG2, 504 h, time 21 day, read-out: TGI
[23] = Toxicity in BALB/c nude mouse xenografted with human HepG2 cells assessed as effect on serum ALT level at 15 to 30 mg/kg, ip administered every other day for 21 days; type: organism-based; settings: in vivo, 504 h, dose 15-30 mg/kg, time 21 day
[24] = Toxicity in BALB/c nude mouse xenografted with human HepG2 cells assessed as effect on serum AST level at 15 to 30 mg/kg, ip administered every other day for 21 days; type: organism-based; settings: in vivo, 504 h, dose 15-30 mg/kg, time 21 day
[25] = Toxicity in BALB/c nude mouse xenografted with human HepG2 cells assessed as effect on serum ALP level at 15 to 30 mg/kg, ip administered every other day for 21 days; type: organism-based; settings: in vivo, 504 h, dose 15-30 mg/kg, time 21 day
[26] = Toxicity in BALB/c nude mouse xenografted with human HepG2 cells assessed as histological change in spleen at 15 to 30 mg/kg, ip administered every other day for 21 days by H and E staining based analysis; type: organism-based; settings: in vivo, 504 h, dose 15-30 mg/kg, time 21 day
[27] = Toxicity in BALB/c nude mouse xenografted with human HepG2 cells assessed as histological change in kidney at 15 to 30 mg/kg, ip administered every other day for 21 days by H and E staining based analysis; type: organism-based; settings: in vivo, 504 h, dose 15-30 mg/kg, time 21 day
HepG2 [28] = test: Induction of ferroptosis in human HepG2 cells xenografted in BALB/c nude mouse assessed as increase in 4-HNE level administered intraperitoneally every other day for 21 days; type: functional; settings: dose 15-30 mg/kg, route ip, time 21.0 day
HepG2 [29] = test: Induction of ferroptosis in human HepG2 cells xenografted in BALB/c nude mouse assessed as increase in MDA level administered intraperitoneally every other day for 21 days; type: functional; settings: dose 15-30 mg/kg, route ip, time 21.0 day

CN(C)S(=O)(=O)c1ccc(N2CCC(Cn3c(C(F)(F)F)nc4ccccc43)CC2)cc1
Toxic: Activity [21]
700 nM: IC50 (786-0 [12])
1260 nM: IC50 (HT-1080 [2])
active: Activity (HT-1080 [3]) | Activity (HepG2 [4]) Dose-Dependent Effect | Activity (HT-1080 [5]) Dose-Dependent Effect | Activity (HT-1080 [9]) Dose-Dependent Effect | Activity (HT-1080 [10]) Dose-Dependent Effect | inhibition [11] Dose-Dependent Effect | Activity (MDA-MB-231 [14]) | Activity (HeLa) | Activity (A-375 [15]) | Activity (HepG2 [28]) Dose-Dependent Effect | Activity (HepG2 [29]) Dose-Dependent Effect
1330 nM: IC50 (HepG2 [13])
inactive: Activity (HepG2 [1]) | Activity (HT-1080 [6]) | Activity (HT-1080 [7]) | Activity (HT-1080 [8]) | Activity (786-0 [16]) | Activity (MDA-MB-231 [17]) | Activity (HepG2 [18]) | Activity (A-375 [19]) | Activity (DU-145)
77.1%: inhibition in vivo at 30 mg/kg (HepG2 [22])
Non-Toxic: Activity [20] | Activity [23] | Activity [24] | Activity [25] | Activity [26] | Activity [27]
